# From patent US20240400547A1, “2,6-PIPERIDINEDIONE COMPOUND AND APPLICATION THEREOF” (MEDSHINE DISCOVERY INC., priority 2021, published 2024)
# Where a name gives a salt, the structure may show the parent alone.
# Tests used:
# [1] = system: human lymphoma SU-DHL-2 cells; assay: In vivo efficacy in CB17 SCID mouse model with subcutaneous xenograft tumors of human lymphoma SU-DHL-2 cells; parameters: species or system CB17 SCID mice; settings: for Tumor volume (Day 0): Day 0 (grouping, baseline); for Tumor volume (Day 0) / Tumor volume (Day 21): average, SEM in next grid line
# Procedure: The study evaluates the antitumor effect of the test compounds using a CB17 SCID mouse model with subcutaneous xenograft tumors of SU-DHL-2 human lymphoma cells.
# • 1. Experimental animals: CB17 SCID mice, female, 6 to 8 weeks old, weighing 18 to 22 g. Beijing Vital River Laboratory Animal Technology Co., Ltd. • 2. Cell line: human lymphoma SU-DHL-2 cells (Cat. No ATCC-CRL-2956).
# Cell culture: Human lymphoma SU-DHL-2 cells (ATCC-CRL-2956) were cultured in suspension in vitro. The culture conditions were RPMI 1640 medium with […] fetal bovine serum, 100 U/mL penicillin and 100 μg/mL streptomycin, and cultured in a 37° C., […] incubator. Routine passaging was performed twice a week. When the cell saturation reached […] and the quantity met the requirements, the cells were collected, counted, and seeded.
# Tumor cell seeding and grouping: 0.2 mL (10×10^6 cells) of SU-DHL-2 cells, in a PBS:Matrigel=1:1 mixture, were subcutaneously inoculated into the right dorsal flank of each mouse. When the average tumor volume reached approximately 139 mm^3, the animals were divided into groups for drug administration. The day of grouping was recorded as Day 0, and dosing began according to the body weight of the animals.
# The pharmacological experiment consisted of a dosing cycle of seven days, with medication administered once daily at a 24-hour interval. The test compounds were given intragastrically, with a total of three dosing cycles. During the experiment, the body weight and tumor size of the animals were measured twice a week, and clinical symptoms were observed and recorded daily.
# The dosing for the test compounds were 10 mg/kg, 30 mg/kg, and 100 mg/kg, with a solvent composition of 10% DMSO/10% Solutol/80% water. The formula for calculating tumor volume (TV) was: 1/2×a×b^2, where a and b were the measured length and width of the tumor, respectively. The formula for calculating the Tumor Growth Inhibition (TGI) rate was: TGI (%)=[(1−(average tumor volume at the end of administration in a treatment group average tumor volume at the beginning of administration in this treatment group))/(average tumor volume at the end of treatment in the vehicle control group−average tumor volume at the beginning of treatment in the vehicle control group)]×100%. Relative Tumor Proliferation rate T/C (%): the calculation formula was as follows: T/C %=TRTV/CRTV×100% (TRTV: average RTV of the treatment group; CRTV: average RTV of the negative control group). According to the results of tumor measurement, the relative tumor volume (RTV) was calculated, and the calculation formula was RTV=Vt/V0, where V0 was the tumor volume measured at the time of group administration (i.e. Day 0), VT was the tumor volume at a certain measurement, and TRTV and CRTV were taken from the same day's data.
# Statistical analysis is based on the data of RTV at the end of the experiment and analyzed by SPSS software. For comparisons between two groups, a T test was used. For comparisons among three or more groups, one-way ANOVA was utilized. If the variance was homogenous (no significant difference in F value), Tukey's method was applied for analysis. If the variance was heterogeneous (significant difference in F value), the Games-Howell method was used for testing. A p-value of <0.05 was considered statistically significant.
# IKZF3 = target: T1, IKZF3 (Homo sapiens, UniProt Q96SW2+Q9UKT9); assay: In Cell Western of IKZF3 protein expression level in MM.1S cells; format: cell-based; settings: IKZF3, MM.1S cells, 24 hours
# T1 construct: host or cells: MM.1S cells
# Procedure: Experimental objective: The experiment aims to assess the degradation effect of the test compounds on IKZF1 and 1KZF3 proteins in MM.1S cells by evaluating the impact of the test compounds on the expression levels of IKZF1 and IZKZF3 proteins in MM.1S cells.
# • Cell lines: MMN.1 S cell (sourced from ATCC; Cat. No CRL-2974) • Negative control: 0.100 DMSO.
# • 1) Log phase MM.1 S cells were plated in a 96-well plate at 1.2×10^5 cells per well and cultured overnight; • 2) The next day, compounds were added with a starting concentration of 300 nM, diluted threefold across three replicate wells for 10 concentration gradients (including DMSO), and the cells were incubated for 24 hours in an incubator; • 3) The cells were centrifuged, and the supernatant was carefully removed. 150 μL of 4% paraformaldehyde fixative was added along the wall of the wells, avoiding contact with the bottom cells, and the cells were incubated at room temperature for 20 minutes; • 4) Lysis buffer was prepared by mixing 0.5 mL of 10% Triton X-100 with 49.5 mL of PBS until homogenous; • 5) 200 μL of lysis buffer was added along the well walls, again avoiding the bottom cells, and incubated on a shaker at room temperature for 5 minutes; • 6) The wells were washed four times; • 7) 150 μL of Licor […] […]
# [2] = 10 mg/kg intragastric once daily
# [3] = 30 mg/kg intragastric once daily
# [4] = 100 mg/kg intragastric once daily
# T1 sequence (Q9UKT9 whole entry): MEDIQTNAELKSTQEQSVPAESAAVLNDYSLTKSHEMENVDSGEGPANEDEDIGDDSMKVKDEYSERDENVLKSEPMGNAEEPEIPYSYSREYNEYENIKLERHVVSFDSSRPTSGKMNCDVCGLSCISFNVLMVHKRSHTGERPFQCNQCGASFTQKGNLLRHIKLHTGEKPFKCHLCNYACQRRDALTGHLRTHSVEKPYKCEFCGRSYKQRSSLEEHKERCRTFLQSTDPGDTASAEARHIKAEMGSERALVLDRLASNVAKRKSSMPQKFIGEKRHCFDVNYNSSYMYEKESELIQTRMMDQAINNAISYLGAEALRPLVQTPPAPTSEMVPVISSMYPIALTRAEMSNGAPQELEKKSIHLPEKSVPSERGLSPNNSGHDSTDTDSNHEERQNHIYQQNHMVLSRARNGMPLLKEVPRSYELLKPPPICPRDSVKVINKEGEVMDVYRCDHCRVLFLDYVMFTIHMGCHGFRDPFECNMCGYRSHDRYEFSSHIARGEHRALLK
# T1 sequence (Q96SW2 whole entry): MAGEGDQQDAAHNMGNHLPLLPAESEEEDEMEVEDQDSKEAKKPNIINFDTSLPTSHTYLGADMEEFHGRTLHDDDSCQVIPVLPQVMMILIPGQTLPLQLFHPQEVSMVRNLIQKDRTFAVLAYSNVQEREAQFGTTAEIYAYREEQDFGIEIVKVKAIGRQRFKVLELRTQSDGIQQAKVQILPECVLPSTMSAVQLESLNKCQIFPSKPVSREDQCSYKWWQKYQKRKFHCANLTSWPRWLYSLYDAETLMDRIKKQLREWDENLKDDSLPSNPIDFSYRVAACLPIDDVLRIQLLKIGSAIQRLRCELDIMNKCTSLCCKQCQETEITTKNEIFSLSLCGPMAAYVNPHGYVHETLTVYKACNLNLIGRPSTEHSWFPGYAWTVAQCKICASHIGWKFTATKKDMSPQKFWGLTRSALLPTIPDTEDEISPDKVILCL
# T1 sequence (Q16531 whole entry partner): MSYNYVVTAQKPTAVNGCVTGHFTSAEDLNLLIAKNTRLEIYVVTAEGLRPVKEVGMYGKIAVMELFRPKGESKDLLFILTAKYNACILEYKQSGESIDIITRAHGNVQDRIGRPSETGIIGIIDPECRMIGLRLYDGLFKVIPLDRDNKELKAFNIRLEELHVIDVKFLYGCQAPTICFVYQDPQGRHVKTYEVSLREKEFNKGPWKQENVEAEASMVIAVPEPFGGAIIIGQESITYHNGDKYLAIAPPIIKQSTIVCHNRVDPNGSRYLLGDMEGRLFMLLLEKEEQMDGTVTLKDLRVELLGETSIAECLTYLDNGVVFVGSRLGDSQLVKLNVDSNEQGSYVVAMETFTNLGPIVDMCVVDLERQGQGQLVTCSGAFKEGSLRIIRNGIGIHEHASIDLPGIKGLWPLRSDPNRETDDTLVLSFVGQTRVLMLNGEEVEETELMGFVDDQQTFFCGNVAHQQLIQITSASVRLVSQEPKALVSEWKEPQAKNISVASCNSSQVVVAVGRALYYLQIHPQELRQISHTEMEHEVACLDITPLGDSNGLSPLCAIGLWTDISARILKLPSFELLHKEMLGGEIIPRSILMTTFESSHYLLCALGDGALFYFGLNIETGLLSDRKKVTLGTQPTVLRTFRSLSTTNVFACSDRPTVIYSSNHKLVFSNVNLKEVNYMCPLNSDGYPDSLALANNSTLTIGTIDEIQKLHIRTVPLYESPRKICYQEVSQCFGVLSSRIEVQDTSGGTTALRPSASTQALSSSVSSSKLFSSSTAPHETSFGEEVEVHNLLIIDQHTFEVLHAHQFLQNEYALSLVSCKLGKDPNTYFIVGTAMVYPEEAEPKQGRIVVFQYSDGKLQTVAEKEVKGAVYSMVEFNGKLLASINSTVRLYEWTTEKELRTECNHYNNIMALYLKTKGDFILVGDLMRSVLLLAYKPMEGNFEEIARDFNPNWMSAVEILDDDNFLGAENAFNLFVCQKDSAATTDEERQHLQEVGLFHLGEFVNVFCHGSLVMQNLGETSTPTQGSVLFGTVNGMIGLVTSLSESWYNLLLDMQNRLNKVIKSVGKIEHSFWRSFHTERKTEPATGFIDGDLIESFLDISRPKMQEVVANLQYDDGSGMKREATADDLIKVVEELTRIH
Compound,"Tumor volume (Day 0) [1, 2] [mm^3]","T/C (%) (Day 21) [1, 2]","TGI (%) (Day 21) [1, 2]","Tumor volume (Day 21) [1, 2] [mm^3]","Tumor volume (Day 0) [1, 3] [mm^3]","T/C (%) (Day 21) [1, 3]","TGI (%) (Day 21) [1, 3]","Tumor volume (Day 21) [1, 3] [mm^3]","Tumor volume (Day 0) [1, 4] [mm^3]","T/C (%) (Day 21) [1, 4]","TGI (%) (Day 21) [1, 4]","Tumor volume (Day 21) [1, 4] [mm^3]",DC50 (IKZF3) [nM],"Dmax (IKZF3; MM1.S, read-out: Maximum degradation rate Dmax) [%]"
O=C1CCC(c2noc3ccc4c(NC(=O)CN5CCN(C[C@H]6CC[C@H](n7cc(NC(=O)c8coc(-c9ccnc(NCC%10CC%10)c9)n8)c(C(F)F)n7)CC6)CC5)cccc4c23)C(=O)N1 (some centres unmarked) [Hydrochloride of WX014],139,42.33,62.13,800,139,42.26,61.41,813,139,33.23,72.07,626,–,–
O=C1CCC(c2noc3ccc4c(NC(=O)C(F)(F)C5CCN(CC6CCC(n7cc(NC(=O)c8coc(-c9ccnc(NCC%10CC%10)c9)n8)c(C(F)F)n7)CC6)CC5)cccc4c23)C(=O)N1 (centres unmarked) [Hydrochloride of WX018],–,–,–,–,–,–,–,–,–,–,–,–,8.34,96.5
